Test results: the NIST ThermoML archive (doi:10.1021/je9010486)
± gives the expanded uncertainty stated by the source.

Test: cn = amount concentration of the nth substance listed, in mol/dm3
Settings: 101 kPa, Liquid

OC[C@@H](O)[C@H](O)[C@@H](O)CO [xylitol] + O
Settings | mass density, 293.15 K [kg/m3] | mass density, 303.15 K [kg/m3] | mass density, 313.15 K [kg/m3] | mass density, 323.15 K [kg/m3] | viscosity, 293.15 K [mPa·s] | viscosity, 303.15 K [mPa·s] | viscosity, 313.15 K [mPa·s] | viscosity, 323.15 K [mPa·s]
c1 = 0.1 | 1003.31 ± 1.3 | 1000.96 ± 1.3 | 997.16 ± 1.3 | 992.72 ± 1.4 | 1.068 ± 0.026 | 0.858 ± 0.022 | 0.685 ± 0.018 | 0.5687 ± 0.015
c1 = 0.2 | 1008.5 ± 1.4 | 1005.78 ± 1.4 | 1002.18 ± 1.3 | 997.77 ± 1.3 | 1.089 ± 0.027 | 0.8774 ± 0.022 | 0.7057 ± 0.018 | 0.5916 ± 0.016
c1 = 0.3 | 1013.42 ± 1.5 | 1010.64 ± 1.5 | 1006.99 ± 1.4 | 1002.55 ± 1.3 | 1.128 ± 0.027 | 0.9121 ± 0.023 | 0.7305 ± 0.019 | 0.6093 ± 0.016
c1 = 0.4 | 1018.54 ± 1.6 | 1015.65 ± 1.6 | 1011.95 ± 1.5 | 1007.51 ± 1.4 | 1.165 ± 0.028 | 0.9452 ± 0.024 | 0.764 ± 0.02 | 0.6384 ± 0.017
c1 = 0.5 | 1023.6 ± 1.7 | 1020.49 ± 1.6 | 1016.87 ± 1.6 | 1012.42 ± 1.5 | 1.207 ± 0.029 | 0.9829 ± 0.024 | 0.7869 ± 0.02 | 0.6596 ± 0.017
c1 = 0.6 | 1028.66 ± 1.8 | 1025.38 ± 1.7 | 1021.78 ± 1.7 | 1017.34 ± 1.6 | 1.25 ± 0.03 | 1.021 ± 0.025 | 0.825 ± 0.021 | 0.6779 ± 0.018
c1 = 0.7 | 1033.72 ± 1.8 | 1030.28 ± 1.8 | 1026.7 ± 1.7 | 1022.25 ± 1.7 | 1.313 ± 0.031 | 1.079 ± 0.026 | 0.8476 ± 0.021 | 0.7063 ± 0.018
c1 = 0.8 | 1038.78 ± 1.9 | 1035.17 ± 1.9 | 1031.62 ± 1.8 | 1027.17 ± 1.8 | 1.362 ± 0.032 | 1.123 ± 0.027 | 0.8825 ± 0.022 | 0.7344 ± 0.019
c1 = 0.9 | 1043.84 ± 2 | 1040.06 ± 2 | 1036.54 ± 1.9 | 1032.09 ± 1.8 | 1.423 ± 0.034 | 1.178 ± 0.029 | 0.923 ± 0.023 | 0.7618 ± 0.02
c1 = 1 | 1048.9 ± 2.1 | 1044.95 ± 2 | 1041.45 ± 2 | 1037 ± 2 | 1.473 ± 0.035 | 1.223 ± 0.029 | 0.9632 ± 0.024 | 0.7896 ± 0.02

OC[C@@H](O)[C@@H](O)[C@H](O)[C@@H](O)CO [D-sorbitol] + O
Settings | mass density, 293.15 K [kg/m3] | mass density, 303.15 K [kg/m3] | mass density, 313.15 K [kg/m3] | mass density, 323.15 K [kg/m3] | viscosity, 293.15 K [mPa·s] | viscosity, 303.15 K [mPa·s] | viscosity, 313.15 K [mPa·s] | viscosity, 323.15 K [mPa·s]
c1 = 0.1 | 1004.76 ± 1.4 | 1002.12 ± 1.3 | 998.58 ± 1.3 | 994.32 ± 1.4 | 1.088 ± 0.027 | 0.8619 ± 0.022 | 0.6892 ± 0.018 | 0.5711 ± 0.015
c1 = 0.2 | 1011.23 ± 1.5 | 1008.52 ± 1.4 | 1004.89 ± 1.4 | 1000.54 ± 1.3 | 1.113 ± 0.027 | 0.8842 ± 0.022 | 0.7109 ± 0.018 | 0.5983 ± 0.016
c1 = 0.3 | 1017.64 ± 1.6 | 1014.83 ± 1.5 | 1011.14 ± 1.5 | 1006.75 ± 1.4 | 1.168 ± 0.028 | 0.9329 ± 0.023 | 0.7399 ± 0.019 | 0.6199 ± 0.017
c1 = 0.4 | 1024.07 ± 1.7 | 1021.15 ± 1.6 | 1017.37 ± 1.6 | 1012.93 ± 1.5 | 1.22 ± 0.029 | 0.9794 ± 0.024 | 0.7849 ± 0.02 | 0.6596 ± 0.017
c1 = 0.5 | 1029.89 ± 1.8 | 1026.88 ± 1.7 | 1023.01 ± 1.7 | 1018.5 ± 1.6 | 1.275 ± 0.031 | 1.029 ± 0.025 | 0.8127 ± 0.021 | 0.6841 ± 0.018
c1 = 0.6 | 1036.94 ± 1.9 | 1033.82 ± 1.9 | 1029.9 ± 1.8 | 1025.33 ± 1.7 | 1.33 ± 0.032 | 1.079 ± 0.026 | 0.8573 ± 0.022 | 0.7037 ± 0.018
c1 = 0.7 | 1043.32 ± 2 | 1040.11 ± 2 | 1036.08 ± 1.9 | 1031.44 ± 1.8 | 1.394 ± 0.033 | 1.136 ± 0.028 | 0.8885 ± 0.022 | 0.7392 ± 0.019
c1 = 0.8 | 1049.36 ± 2.1 | 1046.04 ± 2.1 | 1041.95 ± 2 | 1037.25 ± 1.9 | 1.466 ± 0.035 | 1.202 ± 0.029 | 0.931 ± 0.023 | 0.7779 ± 0.02
c1 = 0.9 | 1056.16 ± 2.2 | 1052.72 ± 2.2 | 1048.48 ± 2.1 | 1043.79 ± 2 | 1.531 ± 0.036 | 1.26 ± 0.03 | 0.9849 ± 0.024 | 0.8178 ± 0.021
c1 = 1 | 1062.52 ± 2.3 | 1058.99 ± 2.3 | 1054.72 ± 2.2 | 1049.92 ± 2.1 | 1.608 ± 0.038 | 1.329 ± 0.032 | 1.03 ± 0.025 | 0.8541 ± 0.022

OC[C@@H](O)[C@@H](O)CO [meso-1,2,3,4-butanetetrol] + O
Settings | mass density, 293.15 K [kg/m3] | mass density, 303.15 K [kg/m3] | mass density, 313.15 K [kg/m3] | mass density, 323.15 K [kg/m3] | viscosity, 293.15 K [mPa·s] | viscosity, 303.15 K [mPa·s] | viscosity, 313.15 K [mPa·s] | viscosity, 323.15 K [mPa·s]
c1 = 0.1 | 1002.06 ± 1.3 | 999.34 ± 1.3 | 995.83 ± 1.4 | 991.64 ± 1.4 | 1.047 ± 0.026 | 0.8541 ± 0.022 | 0.6807 ± 0.018 | 0.5663 ± 0.015
c1 = 0.2 | 1005.36 ± 1.4 | 1002.74 ± 1.3 | 999.19 ± 1.3 | 994.96 ± 1.4 | 1.065 ± 0.026 | 0.8706 ± 0.022 | 0.7005 ± 0.018 | 0.5849 ± 0.016
c1 = 0.3 | 1009.37 ± 1.4 | 1006.74 ± 1.4 | 1003.09 ± 1.3 | 998.81 ± 1.3 | 1.088 ± 0.027 | 0.8913 ± 0.022 | 0.721 ± 0.019 | 0.5986 ± 0.016
c1 = 0.4 | 1012.65 ± 1.5 | 1009.58 ± 1.4 | 1006.3 ± 1.4 | 1001.94 ± 1.3 | 1.11 ± 0.027 | 0.911 ± 0.023 | 0.743 ± 0.019 | 0.6171 ± 0.016
c1 = 0.5 | 1016.16 ± 1.6 | 1013.33 ± 1.5 | 1009.63 ± 1.4 | 1005.23 ± 1.4 | 1.139 ± 0.028 | 0.9366 ± 0.023 | 0.7611 ± 0.02 | 0.6351 ± 0.017
c1 = 0.6 | 1019.38 ± 1.6 | 1016.67 ± 1.6 | 1012.43 ± 1.5 | 1008.41 ± 1.4 | 1.169 ± 0.028 | 0.9634 ± 0.024 | 0.7827 ± 0.02 | 0.652 ± 0.017
c1 = 0.7 | 1023.78 ± 1.7 | 1020.8 ± 1.6 | 1015.82 ± 1.6 | 1012.27 ± 1.5 | 1.213 ± 0.029 | 1.002 ± 0.025 | 0.8067 ± 0.021 | 0.6734 ± 0.018
c1 = 0.8 | 1026.82 ± 1.7 | 1024.2 ± 1.7 | 1019.15 ± 1.6 | 1015.63 ± 1.6 | 1.257 ± 0.03 | 1.045 ± 0.026 | 0.8339 ± 0.021 | 0.6909 ± 0.018
c1 = 0.9 | 1031.9 ± 1.8 | 1027.8 ± 1.8 | 1023.23 ± 1.7 | 1019.38 ± 1.6 | 1.306 ± 0.031 | 1.087 ± 0.027 | 0.861 ± 0.022 | 0.7057 ± 0.018
c1 = 1 | 1034.32 ± 1.9 | 1031.18 ± 1.8 | 1027.24 ± 1.8 | 1022.64 ± 1.7 | 1.338 ± 0.032 | 1.137 ± 0.028 | 0.8965 ± 0.023 | 0.7251 ± 0.019

OC[C@@H](O)[C@@H](O[C@H]1O[C@H](CO)[C@@H](O)[C@H](O)[C@H]1O)[C@H](O)[C@@H](O)CO [4-O-α-D-glucopyranosyl-D-glucitol] + O
Settings | mass density, 293.15 K [kg/m3] | mass density, 303.15 K [kg/m3] | mass density, 313.15 K [kg/m3] | mass density, 323.15 K [kg/m3] | viscosity, 293.15 K [mPa·s] | viscosity, 303.15 K [mPa·s] | viscosity, 313.15 K [mPa·s] | viscosity, 323.15 K [mPa·s]
c1 = 0.1 | 1009.45 ± 1.4 | 1007.32 ± 1.4 | 1003.78 ± 1.4 | 999.68 ± 1.3 | 1.274 ± 0.031 | 0.8869 ± 0.022 | 0.6982 ± 0.018 | 0.6083 ± 0.016
c1 = 0.2 | 1018.37 ± 1.6 | 1016.24 ± 1.6 | 1012.7 ± 1.5 | 1008.6 ± 1.4 | 1.381 ± 0.033 | 0.9747 ± 0.024 | 0.7706 ± 0.02 | 0.652 ± 0.017
c1 = 0.3 | 1027.29 ± 1.7 | 1025.16 ± 1.7 | 1021.62 ± 1.6 | 1017.52 ± 1.6 | 1.513 ± 0.036 | 1.104 ± 0.027 | 0.8464 ± 0.021 | 0.7175 ± 0.019
c1 = 0.4 | 1036.21 ± 1.9 | 1034.08 ± 1.9 | 1030.54 ± 1.8 | 1026.44 ± 1.7 | 1.66 ± 0.039 | 1.225 ± 0.03 | 0.9455 ± 0.024 | 0.7827 ± 0.02
c1 = 0.5 | 1045.13 ± 2 | 1043 ± 2 | 1039.46 ± 2 | 1035.36 ± 1.9 | 1.848 ± 0.043 | 1.361 ± 0.032 | 1.06 ± 0.03 | 0.8723 ± 0.022
c1 = 0.6 | 1054.05 ± 2.2 | 1051.92 ± 2.2 | 1048.38 ± 2.1 | 1044.28 ± 2 | 2.009 ± 0.046 | 1.536 ± 0.036 | 1.177 ± 0.029 | 0.9616 ± 0.024
c1 = 0.7 | 1062.97 ± 2.4 | 1060.84 ± 2.3 | 1057.3 ± 2.3 | 1053.2 ± 2.2 | 2.173 ± 0.05 | 1.684 ± 0.04 | 1.301 ± 0.031 | 1.061 ± 0.026
c1 = 0.8 | 1071.89 ± 2.5 | 1069.76 ± 2.5 | 1066.22 ± 2.4 | 1062.12 ± 2.4 | 2.304 ± 0.053 | 1.825 ± 0.043 | 1.438 ± 0.034 | 1.15 ± 0.028
c1 = 0.9 | 1080.81 ± 2.7 | 1078.68 ± 2.6 | 1075.14 ± 2.6 | 1071.04 ± 2.5 | 2.49 ± 0.057 | 1.947 ± 0.045 | 1.591 ± 0.038 | 1.242 ± 0.03
c1 = 1 | 1089.73 ± 2.8 | 1087.6 ± 2.8 | 1084.06 ± 2.7 | 1079.96 ± 2.7 | 2.68 ± 0.061 | 2.132 ± 0.049 | 1.741 ± 0.041 | 1.385 ± 0.033
